In patent US11013780B2, “Methods of treating female infertility” (Myovant Sciences GmbH, priority 2016, dated 2021):
Like-named read-outs stand apart in the source and are kept apart here. Where a SMILES comes first, the peptide text is derived from it. [ ]: non-standard residue; d: D form. Arg(Me) = CNC(=N)NCCC[C@H](N)C(=O)O; Hyp = O=C(O)[C@@H]1C[C@@H](O)CN1; azaGly = NNC(=O)O

Legend:
[1] = in vitro; type: in vitro ADME, rats, dogs, monkeys, humans; settings: rat, dog, monkey, human, plasma
Procedure: The in vitro distribution ratios of [^14C]API-MA into the blood cells at the concentrations of 0.01, 0.1, 1, and 10 μg/mL API-FB (free form) were 7.8%, 8.0%, 7.1%, and 4.8% for rats, 2.4%, 2.0%, 1.6%, and 1.2% for dogs, and 2.0%, 0.0%, 0.0%, and 0.5% for humans, respectively. […] The in vitro plasma protein binding ratios of [^14C]API-FB in rats, dogs, monkeys, and humans were determined by the ultracentrifugation method. In addition, the protein binding to human serum albumin (HSA), α1-acid glycoprotein (AGP), and HSA/AGP was investigated. […] In rats and dogs, a slight decrease in the binding ratio at the concentration range between 0.1 and 1.0 μg/mL API-FB was observed. In monkeys and humans, the binding was independent of the drug concentrations from 0.01 to 10 μg/mL API-FB.

[2] = system: serum LH, FSH, E2; assay: Physiological effects in healthy women, follicular phase (Example 11, Part 1); type: in vivo, human
Description: The study population included healthy women, aged 18-35 years, with BMI 18-30 kg/m^2, no medical problems and not taking any medications or hormonal contraception. Three healthy, female subjects were selected and randomized and received a single dose of each of the three study regimens noted below (one regimen per study period). All women were scheduled for three Study D1 Visits (each during the follicular phase of the menstrual cycle). […] The order in which a subject receives one of the three study regimens was determined by a randomization matrix.
The study included a screening visit to collect participants' full medical history and to conduct a general medical examination and blood testing. The three study periods each consisted of three planned study visits per study period (excluding screening and follow-up). Study Day 1 (SD1) Visit of each study period occurred during the follicular phase of the menstrual cycle (days 1-4), and the SD2 and SD3 Visits occurred at 24- and 48-hrs post-dose, respectively (FIG. 14). A follow-up phone call happened 7-10 days post-dose in each study period.
Immediately following dosing, serum LH, FSH, E2 (oestradiol), P (progesterone) and SHBG levels were assessed at 30 minute intervals for up to 14 hours (FIGS. 15A-15C, 16A-16C, 17, 18, 19, 20A, and 20B). These PD variables were also assessed at 24 (Study Day 2) and 48 hours (Study Day 3) post-dose. SHBG changes less rapidly and was measured every 3 hours to reduce blood volume.
Up to 3 mL of blood volume were required for measurement of serum reproductive hormone levels (LH, FSH, E2 and P). Blood samples for serum analysis were collected in plain Vacutainer tubes (Beckton Dickson, Franklin Lakes, N.J., USA), and spun after clotting (˜1 hour at room temperature) for 10 minutes at 3000 rpm. Serum was then stored in a locked freezer at −20° C. until assay of serum reproductive hormone levels.

[3] = rat, in vivo; cited from earlier work
[4] = system: 127 enzyme and radio ligand binding assays; assay: Series of 127 enzyme and radio ligand binding assays; settings: 10 μmol/L
[5] = target: T1, CYP1A2 (Homo sapiens, UniProt P05177); assay: Inhibition of recombinant CYP1A2; type: in vitro ADME
T1 sequence (P05177 1-516): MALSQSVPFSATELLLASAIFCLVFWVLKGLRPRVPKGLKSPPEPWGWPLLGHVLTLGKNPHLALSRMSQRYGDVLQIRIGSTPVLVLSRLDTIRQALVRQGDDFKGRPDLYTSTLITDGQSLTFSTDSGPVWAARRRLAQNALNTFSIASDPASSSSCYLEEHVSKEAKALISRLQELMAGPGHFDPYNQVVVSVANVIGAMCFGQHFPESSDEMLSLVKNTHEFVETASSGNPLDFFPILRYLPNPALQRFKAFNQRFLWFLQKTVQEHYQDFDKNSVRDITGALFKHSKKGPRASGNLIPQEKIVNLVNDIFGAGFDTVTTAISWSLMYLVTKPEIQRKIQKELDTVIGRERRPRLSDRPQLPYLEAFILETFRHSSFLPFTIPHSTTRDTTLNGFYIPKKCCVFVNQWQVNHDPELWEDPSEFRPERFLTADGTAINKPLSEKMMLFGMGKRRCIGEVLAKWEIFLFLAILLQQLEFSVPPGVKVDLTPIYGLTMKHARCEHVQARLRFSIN

[6] = target: CYP2C9 (Homo sapiens, UniProt P11712); assay: Inhibition of recombinant CYP2C9; type: in vitro ADME
Sequence of CYP2C9 (P11712 whole entry): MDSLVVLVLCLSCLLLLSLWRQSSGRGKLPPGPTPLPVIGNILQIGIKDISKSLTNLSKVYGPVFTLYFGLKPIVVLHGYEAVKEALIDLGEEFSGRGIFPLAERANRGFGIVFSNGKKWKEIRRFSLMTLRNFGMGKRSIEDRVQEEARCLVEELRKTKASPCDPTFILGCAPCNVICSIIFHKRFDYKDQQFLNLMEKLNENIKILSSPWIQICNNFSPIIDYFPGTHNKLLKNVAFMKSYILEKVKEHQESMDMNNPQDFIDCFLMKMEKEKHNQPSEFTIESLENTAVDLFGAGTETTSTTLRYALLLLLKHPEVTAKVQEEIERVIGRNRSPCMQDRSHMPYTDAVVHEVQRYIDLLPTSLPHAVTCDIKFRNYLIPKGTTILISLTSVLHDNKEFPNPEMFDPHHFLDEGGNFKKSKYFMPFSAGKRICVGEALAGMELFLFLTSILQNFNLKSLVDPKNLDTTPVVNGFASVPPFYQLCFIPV

[7] = PK across species (rats, dogs, monkeys), SC bioavailability; type: in vivo; settings: rat, dog, monkey, plasma, read-out: Bioavailability after SC administration
Description: The PK of API-MA was studied in rats, dogs, and monkeys.

[8] = system: serum LH and FSH; assay: Single dose pharmacodynamics (LH, FSH), Japanese men; type: in vivo, human; settings: single dose 0.001 to 0.5 mg
Procedure: In the phase 1 clinical study of API-MA, subjects enrolled in the first seven cohorts received single SC bolus doses of 0.001, 0.004, 0.01, 0.04, 0.1, 0.25 or 0.5 mg of API-MA or placebo. Subjects enrolled in the eighth and ninth cohorts received single SC infusion doses of 0.25 or 0.5 mg of API-MA or placebo. The pharmacodynamics of the following hormones were assessed: LH, FSH, dihydroepiandrosterone sulfate (DHEA-S), growth hormone (GH), prolactin (PRL), thyroid-stimulating hormone (TSH), and adrenocorticotropic hormone (ACTH). The pharmacodynamic analysis set consisted of 37 subjects (bolus cohorts: 29; infusion cohorts: 8). […] In addition, blood specimens were collected for the measurement of LH and FSH on the day prior to dosing with API-MA. The time courses of mean serum LH concentrations following a single SC bolus of API-MA at doses ranging from 0.001 mg to 0.5 mg are shown in FIG. 6. The LH concentrations peaked between 12 and 24 hours and generally returned to baseline by 72 hours postdose. The magnitudes and durations of the LH concentration increases were similar across the dose range, 0.001 to 0.5 mg. The LH time courses were similar following a single 2-hour SC infusion of API-MA (data not shown).

CNC(=N)NCCC[C@H](NC(=O)[C@H](CC(C)C)NC(=O)NNC(=O)[C@H](Cc1ccccc1)NC(=O)[C@@H](NC(=O)[C@H](CC(N)=O)NC(=O)[C@@H]1C[C@@H](O)CN1C(=O)[C@@H](Cc1ccc(O)cc1)NC(C)=O)[C@@H](C)O)C(=O)N[C@@H](Cc1c[nH]c2ccccc12)C(N)=O [Compound 1, 2-(N-Acetyl-D-tyrosyl-trans-4-hydroxy-L-prolyl-L-asparaginyl-L-threonyl-L-phenylalanyl)-hydrazinocarbonyl-L-leucyl-Nω-methyl-L-arginyl-L-tryptophanamide] (Ac-[dY][Hyp]NTF[azaGly]L[Arg(Me)]W-NH2)
fraction unbound [1]: 0.267 to 0.447 | FSH response [2]: very low compared to the LH response | Time of peak serum LH post-dosing ([2]; 0.003 nmol/kg SC): 14 to 36 h | Duration of LH surge ([2]; 0.03 nmol/kg SC): approximately 14 hours | End of LH surge after administration ([2]; 0.03 nmol/kg SC): 28 h | Time of peak serum LH after administration ([2]; 0.03 nmol/kg SC): 18 to 20 h | bioavailability [3]: 66.3%

CC(=O)O.CNC(=N)NCCC[C@H](NC(=O)[C@H](CC(C)C)NC(=O)NNC(=O)[C@H](Cc1ccccc1)NC(=O)[C@@H](NC(=O)[C@H](CC(N)=O)NC(=O)[C@@H]1C[C@@H](O)CN1C(=O)[C@@H](Cc1ccc(O)cc1)NC(C)=O)[C@@H](C)O)C(=O)N[C@@H](Cc1c[nH]c2ccccc12)C(N)=O [API-MA, 2-(N-Acetyl-D-tyrosyl-trans-4-hydroxy-L-prolyl-Lasparaginyl-L-threonyl-L-phenylalanyl)-hydrazinocarbonyl-L-leucyl-Nω-methyl-L-arginyl-L-tryptophanamide monoacetate] (Ac-[dY][Hyp]NTF[azaGly]L[Arg(Me)]W-NH2)
Inhibitory effect in enzyme and receptor binding assays [4]: did not show any significant inhibitory effect | IC50 [5]: > 7.78 nM | IC50 [6]: > 7.78 nM | bioavailability [7]: > 55% | Time of FSH return to baseline / predose level [8]: ≤ 72 h | Time of LH return to baseline [8]: ≤ 72 h
